Columns and labels:
[1] = target: T1, p-ABHD17C (Homo sapiens, UniProt Q6PCB6); test: SPR (Biacore); co-IP in cells shows disruption of the ABHD17C/ALOX15B interaction; type: binding
T1 sequence (Q6PCB6 1-329): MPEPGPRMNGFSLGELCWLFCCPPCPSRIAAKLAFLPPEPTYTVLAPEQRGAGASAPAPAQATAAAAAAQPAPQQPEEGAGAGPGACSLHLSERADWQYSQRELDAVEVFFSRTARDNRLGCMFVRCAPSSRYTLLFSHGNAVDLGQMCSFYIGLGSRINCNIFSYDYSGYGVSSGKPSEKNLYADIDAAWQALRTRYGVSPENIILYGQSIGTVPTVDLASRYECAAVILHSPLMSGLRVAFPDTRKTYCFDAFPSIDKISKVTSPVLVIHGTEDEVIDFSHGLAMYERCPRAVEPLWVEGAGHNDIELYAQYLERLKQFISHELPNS

[2] = target: T2, ALOX15B immobilised for SPR (human, UniProt O15296 1-676); test: SPR; ALOX15B immobilised on a Series S Sensor Chip, DCAF10 as analyte; details: both partners purified
T2 construct: ALOX15B, human
T2 sequence (looked up): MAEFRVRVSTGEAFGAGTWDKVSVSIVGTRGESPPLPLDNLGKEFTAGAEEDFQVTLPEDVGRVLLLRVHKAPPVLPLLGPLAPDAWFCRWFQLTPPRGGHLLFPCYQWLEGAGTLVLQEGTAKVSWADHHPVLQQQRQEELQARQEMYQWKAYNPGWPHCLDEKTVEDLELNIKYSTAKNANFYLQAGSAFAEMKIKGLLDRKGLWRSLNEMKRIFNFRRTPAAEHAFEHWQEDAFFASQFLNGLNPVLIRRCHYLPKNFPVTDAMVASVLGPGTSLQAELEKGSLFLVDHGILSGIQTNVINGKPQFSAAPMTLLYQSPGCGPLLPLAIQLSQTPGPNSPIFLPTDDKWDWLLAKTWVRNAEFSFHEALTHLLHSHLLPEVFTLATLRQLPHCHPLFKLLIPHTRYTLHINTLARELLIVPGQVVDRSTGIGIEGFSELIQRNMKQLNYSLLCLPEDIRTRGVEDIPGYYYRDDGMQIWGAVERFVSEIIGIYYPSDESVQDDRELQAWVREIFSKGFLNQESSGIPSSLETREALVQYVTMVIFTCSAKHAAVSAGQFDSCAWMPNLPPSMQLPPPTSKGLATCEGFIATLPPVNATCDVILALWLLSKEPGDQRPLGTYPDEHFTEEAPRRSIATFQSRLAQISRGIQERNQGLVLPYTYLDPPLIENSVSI

In the case of `CO[C@]1(CC[C@@H](C)CO[C@@H]2O[C@H](CO)[C@@H](O)[C@H](O)[C@H]2O)O[C@H]2C[C@H]3[C@@H]4CC=C5C[C@@H](O[C@@H]6O[C@H](CO)[C@@H](O[C@@H]7O[C@@H](C)[C@H](O)[C@@H](O)[C@H]7O)[C@H](O)[C@H]6O[C@@H]6O[C@@H](C)[C@H](O)[C@@H](O)[C@H]6O)CC[C@]5(C)[C@H]4CC[C@]3(C)[C@H]2[C@@H]1C` [methyl protodioscin], the Kd [1] is reported as 4.8 µM.

B1: recombinant DCAF10 (natural protein, UniProt Q5QP82 1-559, looked up)
chain: MFPFGPHSPGGDGSAGAGAEEPTPHEGQAAATGPPSPLHPGADATHPPPPARSPRRPGAPSLSPAPRSGELGLPGAPESSTASAPGEPSPPSPPCRRPGPDCRAKSRGRHGLGAGLGGPGARLFGWLKERSLGRGLFVDPARDNFRTMTSLYGSIHPADSVYLSTRTHGAVFNLEYSPDGSVLTVACEQTEVLLFDPISSKHIKTLSEAHEDCVNNIRFLDNRLFATCSDDTTIALWDLRKLNTKVCTLHGHTSWVKNIEYDTNTRLLVTSGFDGNVIIWDTNRYTEDGCPHKKFFHTRFLMRMRLTPDCSKMLISTSSGYLLILHDLDLTKSLEVGSYPILRARRTTSSSDLTTSSSSSGPRVSGSPCHHSDSNSSEKHMSRASQREGVSPRNSLEVVTPEVLGESDHGNCITSLQLHPKGWATLLRCSSNSDDEECTCVYEFQEGAPVRPVSPRCSLRLTHYIEEANVGRGYIKELCFSPDGRMISSPHGYGIRLLGFDKQCSELVDCLPKEASPLRVIRSLYSHNDVVLTTKFSPTHCQIASGCLSGRVSLYQPKF
notes: DCAF10, recombinant
B1 was tested, and the Kd [2] was 6.96 nM.
